Source: patent publication US20250360124A1, “NOVEL RAS INHIBITORS” (KHR BIOTEC GMBH, priority 2022, published 2025)
Where a name gives a salt, the structure may show the parent alone.

Assays:
Assay type in all cases: cell-based
HRAS G12V = biological target: T1, HRAS G12V (Homo sapiens, UniProt P01112, G12V); experiment: NanoBit assay for RAS activation (LgBiT-RAS / SmBiT-CRAF RBD); settings: H-RAS G12V with CRAF RBD; 2 h with inhibitor, serum free DMEM; FIG. 1
T1 construct: K, N and HRAS G12V (full length) was cloned with Xho I and Bgl II to LgBit; expressed in transfected cells
Experimental: (§1) FIG. 1a) and 1b): NanoBit assay for RAS activation (KRAS G12V, NRAS G12V, HRAS G12V)
(§2) N-terminal LgBiT and C-terminal SmBIT construct was purchased from Promega and K, N and HRAS G12V (full length) was cloned with Xho I and Bgl II to LgBit and CRAF Ras binding domain (1-149) was cloned with EcoRI and Bgl II to SmBit. For transfections, 1 μg or 2 μg of (12 well/6 well) plasmids were transfected into cells with 0.5 mM of PEI reagent in 100 μl or 200 μl PBS. One day after transfection, cells were harvested and seeded into 96 well white plates, half area (Greiner). After an additional day the medium was changed to serum free DMEM and the cells were incubated for 2 h with inhibitors. NanoGlo assay was performed according to the manufacturer's instructions. The luminescence was measured using Tecan infinite (Tecan). DMSO-treated cells were set as 1. The results shown are mean mean±SEM from at least 3 independent experiments.

KRAS G12V = biological target: T2, KRAS G12V (Homo sapiens, UniProt P01116, G12V); experiment: as above; settings: K-RAS G12V with CRAF RBD; 2 h with inhibitor, serum free DMEM; FIG. 1
T2 construct: K, N and HRAS G12V (full length) was cloned with Xho I and Bgl II to LgBit; expressed in transfected cells
Experimental: as §1, §2

NRAS G12V = biological target: T3, NRAS G12V (Homo sapiens, UniProt P01111, G12V); experiment: as above; settings: N-RAS G12V with CRAF RBD; 2 h with inhibitor, serum free DMEM; FIG. 1
T3 construct: K, N and HRAS G12V (full length) was cloned with Xho I and Bgl II to LgBit; expressed in transfected cells
Experimental: as §1, §2

ASPC1 cells = experiment: Soft agar colony formation assay, MTT readout; settings: Homo sapiens, growth in soft agar, colonies stained with MTT, absorbance 570 nm
Experimental: (§3) FIGS. 2a) and 2b): MTT assay for cell growth
(§4) Metabolic activity was quantified using Cell Proliferation Kit I (Roche, Basel, Switzerland). Cells were seeded in 96-well cell culture plates, using 5000 cells per well for NCI-H358 cells. After treatment, 10 μl of MTT solution was added and incubated for 2 h in CO2 incubator. Then 100 μl of solubilization buffer was added to each well and incubated overnight in CO2 incubator. Cell viability, assessed by the amount of metabolized MTT, was quantified by measuring absorbance at 570 nm.
(§5) MTT assay for the growth of different tumor cell lines with RAS mutations in soft agar with Quinacrine dihydrochloride.
(§6) NCI-H358, H358, H2122, ASPC-1, HCT-116, T24 and HT1080 cells were used for the soft agar colony formation assay. After the treatment with Quinacrine dihydrochloride hydrate, the colonies were stained with MTT and the value was quantified by measuring absorbance at 570 nm after solubilization. The results represent mean±SEM from 3 independent experiments.

HCT-116 cells = experiment: Soft agar colony formation assay, MTT readout; settings: Homo sapiens, growth in soft agar, colonies stained with MTT, absorbance 570 nm
Experimental: as §3, §4, §5, §6

HT1080 cells = experiment: Soft agar colony formation assay, MTT readout; settings: Homo sapiens, HT-1080, growth in soft agar, colonies stained with MTT, absorbance 570 nm
Experimental: as §3, §4, §5, §6

NCI-H2122 cells = experiment: Soft agar colony formation assay, MTT readout; settings: Homo sapiens, growth in soft agar, colonies stained with MTT, absorbance 570 nm
Experimental: as §3, §4, §5, §6

NCI-H358 cells = experiment: Soft agar colony formation assay, MTT readout; settings: Homo sapiens, growth in soft agar, colonies stained with MTT, absorbance 570 nm
Experimental: as §3, §4, §5, §6

T24 cells = experiment: Soft agar colony formation assay, MTT readout; settings: Homo sapiens, T-24, growth in soft agar, colonies stained with MTT, absorbance 570 nm
Experimental: as §3, §4, §5, §6

sNF96.2 cells = experiment: MTT assay for cell viability in 96 well plate, RASOpathie model; settings: 48 h treatment
KRAS dependent cells = experiment: MTT assay for cell viability in 96 well cell culture plate; settings: 48 h treatment, KRAS dependent cells incl. G12C/Y96D mutation, FIG. 3a
Experimental: FIGS. 3a) and 3b): MTT assay for cell viability in 96 well cell culture plate Cells were treated with Quinacrine dihydrochloride hydrate for 48 h and cell viability was evaluated by MTT assay. DMSO-treated cells were set as 1. The results shown are mean±SEM from 3 independent experiments.
G12C/Y96D mutation is normally seen in patients, who develop resistance to G12C inhibitor. Thus, patients, who are resistant to G12C inhibitors can still be treated with Quinacrine dihydrochloride.

T1 sequence (P01112 whole entry G12V): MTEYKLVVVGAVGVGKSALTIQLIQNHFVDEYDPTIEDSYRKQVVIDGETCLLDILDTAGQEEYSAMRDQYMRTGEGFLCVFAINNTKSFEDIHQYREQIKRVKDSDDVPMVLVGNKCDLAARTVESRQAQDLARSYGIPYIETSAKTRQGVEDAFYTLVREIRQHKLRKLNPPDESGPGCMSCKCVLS
T3 sequence (P01111 whole entry G12V): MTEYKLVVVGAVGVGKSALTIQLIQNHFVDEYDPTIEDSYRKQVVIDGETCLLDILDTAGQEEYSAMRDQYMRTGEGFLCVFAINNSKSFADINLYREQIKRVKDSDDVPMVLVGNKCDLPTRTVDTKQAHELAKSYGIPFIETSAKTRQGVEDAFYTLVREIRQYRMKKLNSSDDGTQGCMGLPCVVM
T2 sequence (P01116 1-188 isoform P01116-2 G12V): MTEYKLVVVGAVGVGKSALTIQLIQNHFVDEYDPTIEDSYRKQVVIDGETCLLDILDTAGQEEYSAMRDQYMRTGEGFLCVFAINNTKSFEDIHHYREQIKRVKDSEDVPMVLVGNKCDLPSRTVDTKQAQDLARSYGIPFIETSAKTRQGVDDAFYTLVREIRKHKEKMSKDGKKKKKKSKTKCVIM

For CCN(CC)CCCC(C)Nc1c2ccc(Cl)cc2nc2ccc(OC)cc12 (centres unmarked) [Quinacrine dihydrochloride hydrate, 4-N-(6-chloro-2-methoxyacridin-9-yl)-1-N,1-N-diethylpentane-1,4-diamine;hydrate;dihydrochloride], the “inhibition of RAS activation (NanoBit luminescence)” value (“inhibition of RAS activation” below) (HRAS G12V) was “inhibits”, the “inhibition of RAS activation” value (KRAS G12V) was “inhibits” and the “inhibition of RAS activation” value (NRAS G12V) was “inhibits”. The IC50 (ASPC1 cells) was 4.28 µM, the IC50 (HCT-116 cells) was 5.5 µM and the IC50 (HT1080 cells) was 149 µM. The IC50 (NCI-H2122 cells) was 2.48 µM, the IC50 (NCI-H358 cells) was 5.1 µM and the IC50 (T24 cells) was 4 µM. The IC50 (sNF96.2 cells) was 4.51 µM and the “inhibition of cell viability” value (KRAS dependent cells) was “inhibits KRAS dependent cells irrespective of the presence of mutation”.
